From patent publication US20240358721A1, “GASDERMIN-D INHIBITORS AND USES THEREOF FOR TREATING PULMONARY VASO-OCCLUSION” (UNIVERSITY OF PITTSBURGH-OF THE COMMONWEALTH SYSTEM OF …, priority 2021, published 2024)
“Also recorded” adds a separate entry of the source.

Tested on: SCD-Selp−/− mice
Assay: qFILM assessment of P-selectin-independent pulmonary vaso-occlusion in SCD-Selp−/− mice IV administered oxy-Hb
Type: in vivo, mouse
Conditions: IV 10 μmole/kg oxy-Hb with 10 mg/kg inhibitor vs oxy-Hb alone, 10 mg/kg
Text: Quantitative fluorescence intravital lung microscopy (qFILM) was used to assess the absence or presence of platelet-neutrophil aggregate mediated pulmonary vaso-occlusion. Pulmonary microcirculation (pseudo-colored purple), neutrophils (red) and platelets (pseudo-colored green) were labeled in vivo by IV administration of FITC dextran, AF546-anti-Ly6G Ab and V450-anti-CD49b Ab, respectively. […] White arrows denote the direction of blood flow within the pulmonary arterioles. Alveoli are marked with asterisks. Scale bars 20 μm. The diameter of pulmonary arteriole in B-E is ˜22 μm, 32 μm, 31.5 μm, and 31 μm, respectively. […] Refer Online Data Supplement for details. […] The data for mice with SCD IV administered 10 oxy-Hb (n=5 mice; 75 FOVs) are included as black bars in FIGS. 1N and 1O for relative comparison. qFILM FOV size ˜65 536 μm^2. Data represent mean ±SE and are compared using Student t test. *P<0.05 (FIG. 1P) Schematic showing the main findings of the study. The sterile inflammatory milieu (DAMPs, IFN-I signaling, and ROS) in SCD promotes caspase-4 (humans) or caspase-11 (mouse)-dependent cleavage of neutrophil GSDMD into the active form GSDMD-NT, leading to the shedding of NETs in the liver microcirculation. Once shed, these NETs are carried by the blood as cNETs to the lung, where they promote neutrophil-platelet aggregation in the pulmonary arterioles, leading to PVO and lung injury (acute chest syndrome).
SCD-Selp^−/− mice were IV administered 10 μmole/kg oxy-Hb (10 oxy-Hb) without or with 10 mg/kg GSDMD inhibitor (Disulfiram). Quantitative fluorescence intravital lung microscopy (qFILM) was used to assess the absence or presence of pulmonary vasoocclusion using the same experimental scheme described in FIG. 1A. Pulmonary vasoocclusions (PVOs) were compared between treatment groups using following two parameters: Number of PVOs per Field of View (#PVOs/FOV) and number of large PVOs (with area>1000 μm^2) per FOV. […] The data for SCD mice IV administered 10 oxy-Hb (n=5 mice; 75 FOVs) is included as black bars in FIGS. 4A and 4B for relative comparison. FOV size˜65,536 μm^2. […]
(FIG. 5A) Experimental scheme: SCD or SCD-Selp^−/− mice were IV administered 10 μmole/kg oxy-Hb (10 oxy-Hb) without or with 10 mg/kg GSDMD inhibitors LDC75591 or Disulfiram. In FIGS. 5C-5D, venous blood was processed to generate PPP and cNETs detected in PPP using Imaging Flow Cytometry. Imaging Flow Cytometry data was quantified to estimate concentration of cNETs (#cNETs/μl of plasma). In FIGS. 5B, and 5E-5F, quantitative fluorescence intravital lung microscopy (qFILM) was used to detect arrival of circulating NETs (cNETs) within the lung microcirculation. Number of cNETs entering per FOV over a 1-minute duration (#cNETs/FOV/min) were quantified. […]

For COc1ccccc1-c1cc2n(n1)Cc1ccc(NC(C)=O)cc1OC2 [LDC7559], the “Number of PVOs per Field of View (#PVOs/FOV)” value was “significantly reduced; also recorded: threefold” and the “number of large PVOs (with area>1000 μm^2) per FOV” value was “absent; also recorded: absence”.
